# Patent US20240251785A1, “SMALL MOLECULE ANTAGONISTS AND AGONISTS OF ARTHROPOD KININ RECEPTORS FOR PEST CONTROL” (The Texas A&M University System, priority 2021, published 2024)
# Read-outs that look alike come from different tables or passages of the source. Where no end group is shown, it is not given here.
# What was measured:
# [1] = biological target: recombinant tick kinin receptor (BMLK3) (Rhipicephalus microplus, UniProt Q9NHA4); test: Dose-response dual-addition calcium fluorescence assay on BMLK3 cells; assay type: cell-based; details: for EC50: read-out: BMLK3 EC50; for activity type in dose-response assay, in words: Rhimi-K-1 1 μmol L^−1
# [2] = test system: Human dermal fibroblasts (HDF) cells; test: Cytotoxicity assay (resazurin); assay type: cell-based; details: Human dermal fibroblasts cells; tested at 20 μcool L^−1
# [3] = test system: vector-only (V/O) CHO-K1 cells; test: Dose-response dual-addition calcium fluorescence assay on vector-only cells; assay type: cell-based
# [4] = test system: R. microplus kinin receptor; test: High-throughput dual-addition calcium fluorescence screen on BMLK3 cells; assay type: cell-based, Rhipicephalus microplus; details: compound 2 μmol L^−1, 5 min, then FFFSWGa 500 nmol L^−1
# [5] = test system: isolated hindguts from females of the mosquito Aedes aegypti; test: Hindgut contraction inhibition assay; details: for effect on hindgut contraction elicited by 1728, in words: compound 100 μmol L^−1, 5 min, then 1728 10 μmol L^−1, 1 h
# Method: A mosquito colony of Ae. aegypti (Diptera: Culicidae), Liverpool strain, was maintained at 26.5° C. in a 16 h:8 h, light:dark photoperiod and provided with 10% sugar water, as described previously.^31 For the experiment, 3-5-day-old females were used, and the assay was modified based on our previous protocol.^33 A group of six female mosquitoes were cold-anesthetized on a Petri dish placed on ice, where both wings were removed. Mosquitoes became active when the plate was removed from the ice. The dissection dish was filled with Ringer's solution (150 mmol L^−1 NaCl, 25 mmol L^−1 HEPES, 3.4 mmol L^−1 KCl, 7.5 mmol L^−1 NaOH, 1.8 mmol L^−1 NaHCO3. 1 mmol L^−1 MgSO4, 1.7 mmol L^−1 CaCl2 and 5 mmol L^−1 glucose, pH 7.1) at room temperature. To dissect the hindgut of each mosquito, their head and thorax were removed with forceps, and the abdomen was submerged in the Ringer solution. The hindgut, ovaries and Malpighian tubules (MTs), and midgut were taken out by pulling the last segment of the abdomen under the Ringer solution. Then, the ovaries and the majority of the midgut were removed using scissors leaving the intact hindgut and MTs. The isolated tissue was transferred with forceps, gripping on the cuticle of the last segment, into a drop of 30 μL Ringer solution in a 12-well-plate (Greiner Bio-One®, 665,102). After six mosquitoes were dissected as a group, paraffin oil (1-2 mL) was added to each well to cover the saline. The cuticle of the last abdominal segment was drawn out of the Ringer solution into the oil for better observation of the hindgut contraction. The tissues were filmed using an Olympus SZ60 camera (Olympus America Inc., Center Valley, PA, USA) mounted on a dissecting microscope.
# First, the hindgut basal contraction rate was recorded by filming each tissue for 60 s. […] After 5 min of incubation at room temperature, 15 μL kinin agonist analog 1728 solution (4×in Ringer solution) was added to the Ringer solution to reach a final concentration of 10 μmol L^−1. After 1 h of incubation, the tissue was filmed again for 60 s.
# The contractible hindgut of mosquito consists of a funnel-shaped pylorus located immediately after the posterior midgut, followed by a long, coiled ileum, and a bulbous colon which contains the rectal pads, and a tapering rectal tube at the posterior end.^35 To analyze each video, the hindgut contraction number was counted by observing the contraction occurring at the junction between the pyloric sphincter and the most anterior ileum. The hindgut contraction rate was expressed as the number of contractions observed over 60 s. The fold change in contraction rate was calculated as the contraction rate estimated at 1 h post treatment divided by the basal rate estimated before the treatment with the chemicals. Each treatment was repeated with 30 female mosquitoes independently. All statistical analyses were done by PRISM software (v8, GraphPad). The differences in fold-change of the contraction rates among treatments were analyzed using the nonparametric Kruskal-Wallis test, followed by the Dunn's multiple comparison test. […].
# [6] = test system: Aedes aegypti kinin receptor; test: Calcium fluorescence assay on recombinant mosquito kinin receptor (IGKN G12 cell line); assay type: cell-based; details: for calcium response, in words: 100 μmol L^−1
# Method: Three identified potent small molecule antagonists, and as control, a small molecule of very low antagonistic activity, all identified as part of this study, were tested in the calcium fluorescence assay, as above, for their activity on the cell line expressing the Aedes aegypti kinin receptor (IGKN G12 cell line). Receptor cloning, expression and clonal cell selection were as described previously.^3′ The recombinant tick kinin receptor (BMLK3) was tested simultaneously as positive control for the assay. BMLK3 and IGKN G12 cells were seeded in 96-well-plates (Greiner Bio-One®, B/C 655097) at a density of […] cells in 100 μL maintenance medium. Cells were prepared as described above for the calcium fluorescence assay; and each well was added with 90 μL assay buffer (see Section 2.3, HHBS plus dye efflux inhibitor).
# For each compound three 10× concentrations (100, 300, 1000 μmol L^−1) were prepared and 10 μL of each was added manually into one well of each cell line for a final concentration of 10, 30 and 100 […]. After 5 min incubation at room temperature, a kinin receptor agonist peptide, the kinin agonist analog 1728^28 [[Aib]FF[Aib]WGamide, RoyoBiotech, Shanghai, China] was added manually (50 μL; 3× stock in HHBS) into each well for a final concentration of 1 μmol L^−1. The cellular calcium response in RFU was immediately recorded continuously for 60 s with 3 s intervals between reads using a Clariostar plate reader. The average RFU of these 20 reads represented the raw response to each treatment. Three independent replicates were run for each concentration and compound. The percentage of signal reduction with respect to the control that contained solvent and the kinin agonist analog 1728 was calculated using the average RFU registered for the treatment with each small molecule divided by the average RFU recorded for the control (100%). Data analyses were performed with the percentage reduction of the three independent replicates. PRISM (Graphpad, San Diego. CA, USA) was utilized for analysis and graphics.
# [7] = biological target: T1, recombinant tick kinin receptor (BMLK3) (Rhipicephalus microplus, UniProt Q9NHA4); test: dual-addition intracellular calcium fluorescence assay, antagonist dose-response (inhibition of Rhimi-K-1 response in BMLK3 cells); assay type: cell-based; details: FIG. 6 SAR analysis; BMLK3 CHO-K1 cells stably expressing R. microplus kinin receptor; agonist Rhimi-K-1 (QFSPWGamide) 1 μmol L^−1
# T1 construct: intracellular calcium fluorescence; agonist Rhimi-K-1 (QFSPWGamide)
# T1 sequence (Q9NHA4 1-397): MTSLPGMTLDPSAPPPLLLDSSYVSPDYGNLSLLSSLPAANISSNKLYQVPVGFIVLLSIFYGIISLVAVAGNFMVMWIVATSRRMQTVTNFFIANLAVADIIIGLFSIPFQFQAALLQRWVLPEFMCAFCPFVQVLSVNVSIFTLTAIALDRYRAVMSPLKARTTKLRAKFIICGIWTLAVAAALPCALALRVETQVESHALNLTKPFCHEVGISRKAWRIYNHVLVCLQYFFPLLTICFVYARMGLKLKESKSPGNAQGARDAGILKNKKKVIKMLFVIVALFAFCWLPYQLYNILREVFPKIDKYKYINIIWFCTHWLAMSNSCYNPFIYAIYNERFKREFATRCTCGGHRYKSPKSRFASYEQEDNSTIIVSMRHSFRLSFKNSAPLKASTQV
# [8] = test system: Rhodnius prolixus hindgut; details: cited from earlier work
# [9] = test system: Drosophila melanogaster renal organs; details: cited from earlier work
# [10] = first addition, 20 concentrations 28 nM-25 μM
# [11] = second addition Rhimi-K-1 1 μmol L^−1, read-out: BMLK3 IC50
# [12] = summary of 36 validated antagonist hits, BMLK3 cells
# [13] = V/O cells, second addition Rhimi-K-1 1 μmol L^−1, read-out: V/O antagonist IC50
# [14] = summary of 36 validated antagonist hits, BMLK3 cells, read-out: BMLK3 IC50
# [15] = summary of 36 validated antagonist hits, vector-only cell (V/O)
# [16] = Table 5 analogs, first addition
# [17] = Table 5 analogs, second addition Rhimi-K-1 1 μmol L^−1, read-out: BMLK3 antagonist IC50
# [18] = compound 10 μmol L^−1, 1 h after 1728 (data not shown)
# [19] = Table 5 analogs, V/O cells, read-out: V/O antagonist IC50
Compound,Inhibitory Efficacy at 12 μM ([1]; BMLK3 cells),"EC50 [1, 12]",HDF average % growth inhibition [2],"IC50 [1, 14]","EC50 [3, 15]","IC50 [3, 15]","effect on hindgut contraction elicited by 1728, in words [5]","EC50 ([3]; Table 5 analogs, V/O cells)","IC50 [3, 19]",other results
Cc1ccc(-c2csc3ncnc(NCc4ccco4)c23)cc1 [SACC-0033457],55.73%,0.122 µM,8.023%,,,,,,,"EC50 [1, 10]: 0.122 µM; IC50 [1, 11]: 14.8 µM; EC50 ([3]; V/O cells, first addition): 11.5 µM; IC50 [3, 13]: 0.679 µM; antagonist Io (%) [4]: 63%"
CCCC[n+]1c(/C=C2/C=CN(CC)c3ccc(C)cc32)ccc2ccccc21 [SACC-0048555],107.39%,8.88 µM,−9.767%,1.51 µM,12.8 µM,3.59 µM,,,,"activity type in dose-response assay, in words ([1]; BMLK3 cells): full agonist; EC50 [1, 10]: 8.88 µM; IC50 [1, 11]: 1.51 µM; EC50 ([3]; V/O cells, first addition): 12.8 µM; IC50 [3, 13]: 3.59 µM; antagonist Io (%) [4]: 54%"
O=C1C(=Cc2ccccc2)SC(=S)N1NS(=O)(=O)c1ccccc1 [SACC-0412060],91.75%,9.57 µM,6.873%,1.89 µM,9.27 µM,0.538 µM,inhibited the increased rate of muscle contraction,9.27 µM,0.538 µM,"EC50 [1, 16]: 9.57 µM; IC50 [1, 17]: 1.89 µM; hindgut contraction rate, in words [5, 18]: no increase in the hindgut contraction rate was observed; effect on hindgut contraction elicited by 1728, in words ([5]; listed as SACC-0412000): significantly reduced the mobility of the hindgut"
Cc1ccc(S(=O)(=O)NN2C(=O)C(=Cc3cccc4ccccc34)SC2=S)cc1 [SACC-0412062],50.31%,,8.117%,,6.26 µM,7.36 µM,inhibited the increased rate of muscle contraction,6.26 µM,7.36 µM,
Cc1ccc(S(=O)(=O)NN2C(=O)C(=Cc3ccc(C(=O)O)cc3)SC2=S)cc1 [SACC-0412064],0.31%,13 µM,−7.067%,0.118 µM,17.4 µM,1.47 µM,did not differ,17.4 µM,1.47 µM,"activity type in dose-response assay, in words ([1]; BMLK3 cells): very weak partial antagonists; EC50 [1, 16]: 13 µM; IC50 [1, 17]: 0.118 µM; calcium response, in words [6]: did not antagonize the calcium response"
CCOc1cc(C=C2SC(=S)N(NS(=O)(=O)c3ccc(C)cc3)C2=O)ccc1O [SACC-0412066],79.17%,,2.02%,,> 25 µM,1.04 µM,inhibited the increased rate of muscle contraction,> 25 µM,1.04 µM,"hindgut contraction rate, in words [5, 18]: no increase in the hindgut contraction rate was observed; effect on hindgut contraction elicited by 1728, in words ([5]; listed as -10412066): significantly reduced the mobility of the hindgut; effect on hindgut contraction elicited by 1728, in words ([5]; listed as SACC-0412006): did not observe any increase in the hindgut contraction rate; inhibition of response compared to control ([6]; 30 μmol L^−1, 1728 1 μmol L^−1): 84%; calcium response, in words [6]: elicited a strong calcium response"
C1C1═CC═C(\C═C2\SC(═O)N(NS(═O)(═O)C3═CC═CC═C3)C2═S)C═C1 [SACC-0064443],,,,,,,,,,IC50 [7]: 0.66 µM
"NPFHAWG-NH2 [aedeskinin 2, reference compound]",,,,,,,,,,"hindgut contraction rate, in words ([5]; 1 μmol L^−1, 1 h (data not shown)): increase of hindgut contraction rate"
[Aib]FF[Aib]WGamide [Molecule 1728],,,,,,,,,,"increase of contraction rate, solvent plus 1728 group ([5]; 1728 10 μmol L^−1, solvent control of SACC-0412062 test (FIG. 8B), 1 h): two-fold; concentration inducing hindgut contraction [8]: 10^−16 M; increase of fluid secretion from renal organs, in words ([9]; 10^−7 M range): not active; concentration active in diuretic assays [9]: 25 µM"
